Several values for one entry are separate records, joined by “and”; a condition that tells them apart may be missing. Identical values can stand only once.
System: HL60 (human promyelocytic leukemia) cells
Assay: LMA-FlexMAP analysis of microtiter well cultures of HL60 cells treated with tretinoin or DMSO, KNN classification
[1] = HL60 microtiter plate wells tretinoin40-47 (replicates)

SMILES: CC1=C(/C=C/C(C)=C/C=C/C(C)=C/C(=O)O)C(C)(C)CCC1 [tretinoin, all-trans-retinoic acid]
- NM_000632 LUA#12 FlexMap level [1]: 60 and 298 and 544 and 994 and 932 and 486 and 500 and 525.5
- NM_000698 LUA#14 FlexMap level [1]: 45.5 and 156 and 269 and 394 and 342 and 297.5 and 363 and 352
- NM_000875 LUA#55 FlexMap level [1]: 184 and 1002 and 1389.5 and 1772 and 1303 and 1192 and 1271 and 810
- NM_000884 LUA#81 FlexMap level [1]: 82 and 506 and 875 and 897 and 732.5 and 789 and 805 and 513.5
- NM_000962 LUA#7 FlexMap level [1]: 63.5 and 391 and 761 and 776 and 470 and 646.5 and 671.5 and 452
- NM_001034 LUA#67 FlexMap level [1]: 65 and 447 and 989 and 779 and 733.5 and 645 and 1063 and 476
- NM_001101 LUA#34 FlexMap level [1]: 260.5 and 1606 and 2206 and 2257 and 1647 and 1943 and 1881 and 904
- NM_001469 LUA#79 FlexMap level [1]: 65 and 320.5 and 885 and 739 and 765 and 734 and 561 and 370
- NM_001498 LUA#18 FlexMap level [1]: 126.5 and 890.5 and 1632 and 1563.5 and 1134 and 1467 and 1510 and 888
- NM_001684 LUA#23 FlexMap level [1]: 884 and 3012 and 3316.5 and 3512 and 3036 and 2755.5 and 2662 and 1478
- NM_001948 LUA#84 FlexMap level [1]: 255 and 1430 and 2470.5 and 2273.5 and 1891 and 2131 and 2132.5 and 1104
- NM_001974 LUA#11 FlexMap level [1]: 38.5 and 98 and 351 and 256 and 258 and 253.5 and 286.5 and 224
- NM_002166 LUA#25 FlexMap level [1]: 411.5 and 1693.5 and 2999 and 2964 and 2068 and 1985 and 2518 and 1239
- NM_002358 LUA#53 FlexMap level [1]: 64 and 339 and 572 and 611 and 366 and 481 and 531 and 433
- NM_002467 LUA#90 FlexMap level [1]: 383 and 983.5 and 1643 and 1800 and 1920 and 1518 and 1725 and 1034
- NM_002468 LUA#40 FlexMap level [1]: 48 and 285.5 and 324 and 728 and 896.5 and 343 and 632 and 464
- NM_002539 LUA#74 FlexMap level [1]: 94 and 559 and 886 and 952 and 715 and 861.5 and 822 and 535
- NM_002624 LUA#36 FlexMap level [1]: 53 and 180.5 and 397 and 381 and 330.5 and 336 and 400.5 and 394
- NM_002664 LUA#38 FlexMap level [1]: 73 and 478 and 906 and 798 and 599 and 773 and 748 and 512
- NM_002970 LUA#42 FlexMap level [1]: 92 and 298 and 598 and 589 and 622.5 and 577.5 and 586 and 478
- NM_002982 LUA#45 FlexMap level [1]: 286 and 2331 and 2514 and 4037 and 4231 and 2722 and 2898 and 1696.5
- NM_003132 LUA#68 FlexMap level [1]: 41 and 126 and 264.5 and 264 and 195.5 and 257 and 296 and 327.5
- NM_003172 LUA#19 FlexMap level [1]: 818 and 3200.5 and 3348 and 3577.5 and 2983 and 2898 and 2747 and 1471
- NM_003332 LUA#43 FlexMap level [1]: 274 and 646 and 1341.5 and 1324 and 1984.5 and 1651 and 2226 and 1241.5
- NM_003581 LUA#62 FlexMap level [1]: 62.5 and 372 and 962 and 808 and 751 and 735.5 and 801 and 515
- NM_003644 LUA#17 FlexMap level [1]: 69 and 255 and 415 and 428 and 359 and 374 and 395 and 302
- NM_003752 LUA#82 FlexMap level [1]: 115.5 and 536.5 and 1061 and 1015.5 and 768.5 and 1020 and 912.5 and 596
- NM_003825 LUA#8 FlexMap level [1]: 81.5 and 192.5 and 338 and 383.5 and 307.5 and 331 and 502 and 476.5
- NM_003879 LUA#24 FlexMap level [1]: 225 and 1355.5 and 1937.5 and 1983.5 and 1275 and 1677 and 1564 and 923
- NM_004079 LUA#21 FlexMap level [1]: 350 and 2202 and 3008 and 3030.5 and 2326 and 2816 and 2701 and 1488
- NM_004095 LUA#59 FlexMap level [1]: 72 and 383 and 714 and 665 and 496.5 and 650.5 and 593.5 and 442
- NM_004106 LUA#44 FlexMap level [1]: 47 and 142 and 253.5 and 302 and 321 and 271 and 273.5 and 267
- NM_004134 LUA#76 FlexMap level [1]: 78 and 432.5 and 873 and 866 and 531 and 759 and 744 and 493
- NM_004152 LUA#31 FlexMap level [1]: 58 and 337 and 710 and 811 and 628.5 and 782 and 652 and 408.5
- NM_004514 LUA#46 FlexMap level [1]: 176 and 834 and 1159.5 and 1224 and 964 and 992 and 1017 and 626
- NM_004526 LUA#88 FlexMap level [1]: 642 and 1081.5 and 1122 and 840 and 1033 and 1012 and 641.5
- NM_004602 LUA#32 FlexMap level [1]: 458.5 and 678 and 736.5 and 1957 and 1765.5 and 664 and 571.5 and 773.5
- NM_004631 LUA#52 FlexMap level [1]: 86.5 and 322 and 705 and 629 and 524 and 633 and 667 and 532
- NM_004723 LUA#20 FlexMap level [1]: 89 and 620 and 1056 and 982 and 761 and 886 and 853 and 494.5
- NM_004741 LUA#89 FlexMap level [1]: 131 and 383 and 972 and 1003 and 933 and 920 and 1126 and 571
- NM_004759 LUA#37 FlexMap level [1]: 40.5 and 67.5 and 186.5 and 169 and 134.5 and 142 and 145 and 190
- NM_004782 LUA#4 FlexMap level [1]: 163 and 811 and 1306 and 1264 and 1063.5 and 1077 and 1094 and 639
- NM_005008 LUA#77 FlexMap level [1]: 73 and 425 and 885 and 923 and 779.5 and 801 and 828 and 525
- NM_005375 LUA#86 FlexMap level [1]: 273 and 1380 and 2455 and 2357.5 and 2068 and 2193 and 2264 and 1273.5
- NM_005566 LUA#85 FlexMap level [1]: 129.5 and 862.5 and 1842.5 and 1550 and 1000 and 1282 and 1196 and 592
- NM_005736 LUA#1 FlexMap level [1]: 92 and 522 and 909 and 1432 and 1896 and 847 and 1205.5 and 695
- NM_005914 LUA#60 FlexMap level [1]: 303 and 1363 and 2538.5 and 2273 and 1739 and 1694 and 1933.5 and 1154.5
- NM_005915 LUA#72 FlexMap level [1]: 48 and 300 and 495 and 474 and 315.5 and 496 and 401.5 and 256.5
- NM_005952 LUA#66 FlexMap level [1]: 104 and 573 and 891 and 961 and 623.5 and 847.5 and 775 and 571
- NM_005980 LUA#73 FlexMap level [1]: 35.5 and 83 and 102 and 162 and 149 and 95 and 114 and 168
- NM_006019 LUA#35 FlexMap level [1]: 41 and 192.5 and 363 and 400.5 and 353 and 361 and 402 and 332
- NM_006138 LUA#56 FlexMap level [1]: 70 and 325.5 and 443 and 659.5 and 488 and 437 and 429 and 341
- NM_006432 LUA#27 FlexMap level [1]: 90 and 394 and 854.5 and 800 and 695 and 670 and 719 and 450
- NM_006452 LUA#71 FlexMap level [1]: 207.5 and 1176 and 1736 and 1656.5 and 1374 and 1531 and 1587 and 911.5
- NM_006457 LUA#13 FlexMap level [1]: 36 and 51 and 83 and 94 and 84 and 95 and 132 and 200
- NM_006773 LUA#47 FlexMap level [1]: 164 and 717 and 1137 and 1120.5 and 783 and 937.5 and 907 and 576.5
- NM_006948 LUA#51 FlexMap level [1]: 34 and 49 and 82 and 95 and 83 and 79.5 and 85.5 and 106.5
- NM_006985 LUA#58 FlexMap level [1]: 90 and 720 and 1223 and 1310 and 813 and 1136.5 and 983 and 635
- NM_007282 LUA#16 FlexMap level [1]: 778.5 and 3067.5 and 3626 and 3678 and 3097 and 3055 and 2958.5 and 1505
- NM_007331 LUA#50 FlexMap level [1]: 88 and 474 and 915.5 and 927.5 and 770 and 739 and 835 and 583
- NM_013402 LUA#54 FlexMap level [1]: 114 and 705 and 1150 (2×) and 806 and 1051.5 and 1087 and 711
- NM_014288 LUA#48 FlexMap level [1]: 154 and 477.5 and 801 and 816 and 527.5 and 706 and 650 and 453
- NM_014333 LUA#26 FlexMap level [1]: 180.5 and 949.5 and 1577 and 1549 and 1309 and 1337 and 1390 and 811
- NM_014366 LUA#61 FlexMap level [1]: 383 and 1773 and 2236 and 2380 and 1850 and 1787.5 and 1681.5 and 1009.5
- NM_014573 LUA#70 FlexMap level [1]: 43 and 143 and 320 and 325 and 274 and 243 and 407.5 and 300
- NM_014962 LUA#5 FlexMap level [1]: 152.5 and 726 and 1269 and 1290 and 1213 and 1076 and 1134 and 717
- NM_015201 LUA#57 FlexMap level [1]: 182 and 1154 and 1768 and 1714 and 1251 and 1398.5 and 1507 and 930.5
- NM_016061 LUA#9 FlexMap level [1]: 134 and 674 and 1086 and 1267.5 and 863 and 975 and 1073.5 and 741
- NM_017440 LUA#49 FlexMap level [1]: 101 and 405.5 and 707 and 774 and 716 and 607 and 693 and 477
- NM_018115 LUA#63 FlexMap level [1]: 746.5 and 3193 and 3722 and 4141 and 3225.5 and 3292.5 and 3054 and 1569
- NM_018164 LUA#69 FlexMap level [1]: 52 and 170 and 429 and 380 and 304.5 and 304 and 358.5 and 234
- NM_018217 LUA#3 FlexMap level [1]: 189 and 990 and 1514 and 1581 and 1499 and 1286 and 1386 and 854.5
- NM_018256 LUA#83 FlexMap level [1]: 102 and 717 and 1252 and 1104 and 692.5 and 1077 and 929 and 470
- NM_018890 LUA#33 FlexMap level [1]: 562 and 2557 and 3812.5 and 4178 and 4310 and 3724.5 and 2984 and 1462.5
- NM_019058 LUA#75 FlexMap level [1]: 258 and 1804 and 2807 and 2882 and 2288 and 2430 and 2201 and 1184
- NM_020117 LUA#78 FlexMap level [1]: 236.5 and 1585 and 2193 and 2242.5 and 1690 and 1988 and 1734 and 848.5
- NM_021103 LUA#41 FlexMap level [1]: 591.5 and 1730 and 2238 and 2731 and 2283 and 1975 and 1828.5 and 1027
- NM_021203 (LUA#80) FlexMap level [1]: 53 and 171 and 386 and 377.5 and 283.5 and 348 and 279
- NM_021974 LUA#64 FlexMap level [1]: 268 and 1606 and 2307 and 2301 and 1472 and 1996 and 1890 and 1117.5
- NM_024045 LUA#65 FlexMap level [1]: 85 and 495 and 831 and 833.5 and 527 and 681 and 728.5 and 471
- NM_032571 LUA#15 FlexMap level [1]: 31 and 109 and 203 and 222.5 and 165.5 and 191 and 270.5 and 253.5
- NM_173823 LUA#6 FlexMap level [1]: 84 and 594.5 and 1106.5 and 1168.5 and 1130.5 and 1080 and 1163 and 807
- TFRC LUA#92 FlexMap level [1]: 89 and 400 and 794 and 910.5 and 811 and 827.5 and 1042 and 592
- NM_021203 (LUA#80) FlexMap level (HL60 microtiter well cultures, one value per tretinoin well): 416 and 381.5 and 345 and 387 and 409 and 426 and 427 and 412

Source: US20110015080A1, “Solution-based methods for RNA expression profiling” (MASSACHUSETTS INSTITUTE OF TECHNOLOGY, priority 2005, published 2011)
